Reference: US20140357512A1, “HISTONE DEACETYLASE (HDAC) BIOMARKERS IN MULTIPLE MYELOMA” (priority 2013, published 2014)

Test system: human myeloma cell line MM.1S
Assay: SILAC acetylated-lysine peptide profiling, HDAC inhibitor vs DMSO (light/heavy ratio)
Type: cell-based
From the text: An embodiment of the invention comprises utilizing the SILAC method in order to quantitate changes in protein expression between two or more populations of cells. The SILAC method is a technique based on mass spectrometry that detects differences in protein abundance among samples using non-radioactive isotopic labeling. The SILAC method is known in the art, and described in detail in Ong et al., “Stable Isotope Labeling by Amino Acids in Cell Culture, SILAC, as a Simple and Accurate Approach to Expression Proteomics”, Molecular & Cellular Proteomics, vol. 1, pp. 376-386 (2002), which is incorporated herein by reference in its entirety.
Briefly, the SILAC method involves growing two populations of cells in cell culture. The first population of cells is grown in growth media containing normal amino acids (“normal media”). The second population of cells is grown in media lacking a standard essential amino acid (such as lysine), but is then supplemented with a non-radioactive, isotopically labeled form of that essential amino acid (such as lysine labeled with ^13C atoms, rather than normal ^12C atoms), which is called “heavy media”. When the two populations of cells are each growing in the medium, they incorporate the amino acids into all of their proteins. The growth of cells maintained in the heavy media is no different from that in normal media. All peptides containing the heavy amino acids are heavier than their normal counterparts. The cells from each of the two populations of cells are lysed. The lysates from each of the two cell populations are then combined. The combined cell lysates are then analyzed by mass spectrometry. Pairs of chemically identical peptides of different stable isotope composition can be differentiated in a mass spectrometer due to their difference in mass. The ratio of peak intensities in the mass spectrum for such peptide pairs reflects the abundance ratio for the two proteins.
This example describes SILAC studies that were performed to compare the effects of three different HDAC inhibitors (Compound A, Compound B, and tubastatin A) to a control on a human multiple myeloma cell line. The HDAC inhibitors were also compared amongst themselves to determine differences in their effects.
A human myeloma cell line MM.1S was grown using either ^12C (light) or ^13C (heavy) lysine containing culture medium. The “heavy” cells were treated with DMSO as the control, and the “light” cells were treated with a single HDAC inhibitor at 37° C. for 6 hours. The heavy and light cells were lysed, and the lysates were mixed in 1:1 ratio and digested with the protease trypsin. The acetylated lysine containing peptides (due to the action of the HDAC inhibitor) in the digested peptide pool were captured by a non-specific anti-acetylated lysine antibody cocktail (the antibodies identify both light and heavy acetylated peptides), and subjected to mass spectrometry analysis in order to identify thousands of individual peptides.
Thousands of peptides were identified in pairs (^12C and ^13C) due to their known mass differences. The amino acid sequence and quantitative ratio (Light/Heavy) of a given peptide in two differentially treated cell lysates were then determined and annotated with their possible protein (gene) sources.
As stated above, three HDAC inhibitors (Compound A, Compound B, and Tubastatin A) were used. Thus, the SILAC method was performed three times, with a different HDAC inhibitor compared to a control each time. Accordingly, there are three pairs of quantitative data in the table below, i.e., Compound A:DMSO, Compound B:DMSO, and Tubastatin A:DMSO. A cut-off of 1.30 fold of change (increase or decrease) was then used to determine “changed” or “+” in the table, and any peptides with a fold of change less than 1.3 fold were determined to be “unchanged” or “0” in the table. Those peptides that were not identified were marked as “NA” in the table. […]

O=C(NO)c1cnc(NC2(c3cccc(F)c3)CCCCC2)nc1 [Compound B, 2-((1-(3-fluorophenyl)cyclohexyl)amino)-N-hydroxypyrimidine-5-carboxamide]
−0.56 log 2: L/H ratio of acetylated peptide (TFYQMYDK(ac)GLVYR (SEQ ID NO: 407), Isoleucyl-tRNA synthetase mitochondrial [233], IARS2)
−0.57 log 2: L/H ratio of acetylated peptide (VAHLALK(ac)HR (SEQ ID NO: 436), Isoform Rpn10A of 26S proteasome non-ATPase regulatory subunit 4 [9]8, PSMD4)
0.74 log 2: L/H ratio of acetylated peptide (TVSK(ac)[…] (SEQ ID NO: 428), 6-phosphogluconate dehydrogenase decarboxylating [38], PGD)
0.00: light to heavy ratio (L/H ratio) of acetylated peptide, log 2 scale (TAMK(ac)YNLGLDLR (SEQ ID NO: 158), Glutamate dehydrogenase 1 mitochondrial [527], GLUD1) | light to heavy ratio (L/H ratio) of acetylated peptide, log 2 scale (TLQYK(ac)[…] (SEQ ID NO: 252), 40S ribosomal protein S16 [50], RPS16) | light to heavy ratio (L/H ratio) of acetylated peptide, log 2 scale (TPVIVTLK(ac)ENER (SEQ ID NO: 176), Hypoxia up-regulated protein 1 [75], HYOU1) | L/H ratio of acetylated peptide […](ac)YVPR (SEQ ID NO: 109) (TUBB2C [58], log 2 scale, drug vs DMSO) | L/H ratio of acetylated peptide ILAEGGGAK(ac)FK (SEQ ID NO: 110) (TUFM [91], log 2 scale, drug vs DMSO) | L/H ratio of acetylated peptide QIESK(ac)[…] (SEQ ID NO: 111) (TXN [8], log 2 scale, drug vs DMSO) | L/H ratio of acetylated peptide VYVAK(ac)[…] (SEQ ID NO: 113) (TXNDC5, MUTED, MUTED-TXNDC5 [118], log 2 scale, drug vs DMSO) | L/H ratio of acetylated peptide […](ac)YQGPR (SEQ ID NO: 112) (TXNDC5, MUTED, MUTED-TXNDC5 [150], log 2 scale, drug vs DMSO) | light to heavy ratio (L/H ratio) of acetylated peptide, log 2 scale (TYGEIFEK(ac)FHPIR (SEQ ID NO: 188), NADH dehydrogenase [ubiquinone] 1 subunit C2 [114], NDUFC2) | light to heavy ratio (L/H ratio), log 2 scale, acetylated peptide […](ac)YGK (SEQ ID NO: 817) (Transitional endoplasmic reticulum ATPase [109], gene VCP, drug:DMSO) | light to heavy ratio (L/H ratio), log 2 scale, acetylated peptide FGAPQK(ac)DVK (SEQ ID NO: 788) (Trifunctional enzyme subunit alpha mitochondrial [359], gene HADHA, drug:DMSO) | light to heavy ratio (L/H ratio), log 2 scale, acetylated peptide ILQEGVDPK(ac)K (SEQ ID NO: 789) (Trifunctional enzyme subunit alpha mitochondrial [569], gene HADHA, drug:DMSO) | L/H ratio of acetylated peptide VVVTK(ac)YCDPDSYHR (SEQ ID NO: 114) (U2AF2 [462], log 2 scale, drug vs DMSO) | L/H ratio of acetylated peptide FGIAAK(ac)[…] (SEQ ID NO: 115) (VDAC1 [224], log 2 scale, drug vs DMSO) | L/H ratio of acetylated peptide YK(ac)[…] (SEQ ID NO: 116) (VDAC2 [63], log 2 scale, drug vs DMSO) | L/H ratio of acetylated peptide YK(ac)[…] (SEQ ID NO: 117) (VDAC3 [63], log 2 scale, drug vs DMSO)
0.40 log 2: L/H ratio of acetylated peptide (TTTCSK(ac)LAYYYQR (SEQ ID NO: 451), Signal recognition particle 54 kDa protein [120], SRP54)
−0.38 log 2: L/H ratio of acetylated peptide (TTHLIAK(ac)EEMIHNLQ (SEQ ID NO: 435), 26S proteasome non-ATPase regulatory subunit 12 [448], PSMD12)
−0.86 log 2: L/H ratio of acetylated peptide (TPSVGK(ac)[…] (SEQ ID NO: 418), Isoform Long of Antigen KI-67 [2264], MKI67)
−0.63: L/H ratio of acetylated peptide (ac)[…](ac)AAK (SEQ ID NO: 6) (VDAC3 [12], log 2 scale, drug vs DMSO)
−0.45 log 2: light to heavy ratio (L/H ratio) of acetylated peptide SNYK(ac)MMFVK (SEQ ID NO: 368) (Small acidic protein [174], C11orf58, drug:DMSO)
0.00 log 2: light to heavy ratio (L/H ratio) of acetylated peptide SFLLK(ac)DSETSQR (SEQ ID NO: 567) (Serine hydroxymethyltransferase mitochondrial [474], gene SHMT2, inhibitor:DMSO) | light to heavy ratio (L/H ratio) of acetylated peptide SGLLDK(ac)WK (SEQ ID NO: 602) (Signal peptidase complex subunit 2 [38], gene LOC653566, SPCS2, inhibitor:DMSO) | light to heavy ratio (L/H ratio) of acetylated peptide YDDPEVQK(ac)DIK (SEQ ID NO: 578) (Stress-70 protein mitochondrial [135], gene HSPA9, inhibitor:DMSO) | light to heavy ratio (L/H ratio) of acetylated peptide […](ac)SLAEHR (SEQ ID NO: 534) (Stress-induced-phosphoprotein 1 [325], gene STIP1, inhibitor:DMSO) | light to heavy ratio (L/H ratio) of acetylated peptide NICSK(ac)YSVR (SEQ ID NO: 256) (Thioredoxin domain-containing protein 5 [390], TXNDC5, MUTED, MUTED-TXNDC5, drug:DMSO) | light to heavy ratio (L/H ratio) of acetylated peptide SEIINSK(ac)NFDR (SEQ ID NO: 525) (Transmembrane protein 43 [159], gene TMEM43, inhibitor:DMSO) | light to heavy ratio (L/H ratio) of acetylated peptide VK(ac)[…] (SEQ ID NO: 562) (Tricarboxylate transport protein mitochondrial [149], gene SLC25A1, inhibitor:DMSO) | light to heavy ratio (L/H ratio) of acetylated peptide VPGK(ac)DTVTK (SEQ ID NO: 308) (Trifunctional enzyme subunit beta mitochondrial [272], HADHB, drug:DMSO)
